Experimental data from US20100258138A1, “RADIOLABELED 1-ACETATE PET IMAGING FOR RA[…] HEAD AND NECK CANCER” (priority 2006, published 2010).
Values joined by “and” are separate entries in the source; they are usually repeats but may differ in a detail not shown here. Equal values may be shown once.

Experiments:
salivary glands = assay: ACE-PET physiological uptake in normal tissue; parameters: species or system human; conditions: in vivo
Experimental: (§1) Six patients were studied with dedicated PET and four patients were investigated with PET/CT. A 32 minutes dynamic emission scan was performed immediately after intravenous injection of 10 MBq/kg body weight ACE. The scan time was 12×5s, 6×10s, 4×30s, 4×60s, 2×120s and 4×300s. Frame 30 (17-22 minutes after injection) generally provided the best image quality with highest tumor to background ratio and was therefore chosen for subsequent data analysis.

[1] = system: lymph node metastases of head and neck squamous cell carcinoma; assay: ACE-PET imaging of metastases; assay type: in vivo, human
Experimental: (§2) None of the patients suffered from diabetes. […] All patients participating in the study provided informed consent.
as §1
(§3) Isoactivity pixel value=(MPVtumor+APVbackground)×50%

[2] = system: primary tumors of head and neck squamous cell carcinoma; assay: ACE-PET imaging of primary tumors; assay type: in vivo, human
Experimental: as §2, §1, §3

[3] = system: primary tumors of head and neck squamous cell carcinoma; conditions: ten patients
Experimental: (§4) Ten consecutive patients (median age 56, range 18-77 years), where of eight males and two females with histologically confirmed squamous cell carcinoma of the head and neck, were included in the study. None of the patients suffered from diabetes. […] Conventional staging of the tumors was performed by CT (n=9), MRI (n=1), histopathology and clinical examination. Histological confirmation was obtained by guided biopsies in all the primary tumors and most metastatic sites. […] All patients participating in the study provided informed consent. The study was accepted by the ethical committee of the participating hospital.
(§5) In all patients, both FDG-PET and ACE-PET were performed before the radiotherapy treatment. ACE and FDG-PET scans were performed on the same or consecutive day, except for one patient where the two types of PET scanning were done five days apart. PET studies were carried out with a dedicated PET scanner (Siemens ECAT HR^+, Knoxville, Tenn., USA) or with a PET/CT (GE Discovery S T, Milwaukee, Wis., USA). All patients were normoglycemic and were fasted at least 6 hours before tracer injection.
(§6) Whole-body scanning was performed one hour after intravenous injection of 5 MBq/kg body weight FDG. Six patients were examined by PET/CT and four patients were studied by PET alone. The patients were instructed to remain recumbent and avoid voicing and other uses of neck muscles during the uptake period.
(§7) PET images were co-registered with the CT or MRI images in all patients by a normalized mutual information procedure supported by manual correction using Hermes Multimodality™ software (Nuclear Diagnostics, Stockholm, Sweden). FDG-PET and ACE-PET images were analyzed both qualitatively and quantitatively, using Hermes Volume Display™ version V2β. In qualitative analysis, PET images were interpreted visually by two nuclear medicine physicians and any disagreement was resolved by consensus. The tumor uptake of FDG and ACE was graded into negligible, mild, moderate and intensive compared to the contra-lateral or surrounding tissues. An abnormal uptake equal to or exceeding mild was considered positive. In quantitative analysis, the mean standardized uptake value (SUV) and tumor volumes delineated by ACE and FDG-PET were evaluated. SUV was calculated as mean radioactivity concentration in the volumes (Bq/cc) divided by injected dose (Bq) per kilogram body weight. […]
(§8) Each tumor volume in FDG-PET and ACE-PET was delineated automatically by tracing an isoactivity pixel value set to 50% threshold of the maximum radioactivity corrected for background. The background was measured from a separately drawn region of interest (ROI) adjacent but at safe distance from the tumor. The isoactivity pixel value of each volume was calculated as: […]

[4] = system: lymph node metastases of head and neck squamous cell carcinoma; conditions: 21 metastatic lesions
Experimental: as §4, §5, §6, §7, §8

Compound: C[11C](=O)O [ACE, ^11C-acetate]
- physiological uptake of ACE in salivary glands (salivary glands): normally high physiological uptake
- ACE SUV (mean±SD) ([1]; 21 metastatic lesions): 4.0±1.3
- range of ACE SUV ([1]; 21 metastatic lesions): 2.4-6.2
- ACE-PET SUV ([1]; individual metastasis (one line per lesion), 10 MBq/kg i.v., frame 17-22 min): 3.5 and 5.9 and 4.7 and 5.1 and 3.1 and 2.9 and 4.5 and 3.9 and 4.6 and 5.8 and 3.0 and 2.8 and 2.6 and 3.7 and 6.2 and 2.4 and 2.7
- ACE-PET Visual ([1]; individual metastasis, visual grading of uptake): +++ (6×) and ++ (9×) and − and + (5×)
- ACE-PET SUV ([2]; primary tumor, individual patient (one line per patient), 10 MBq/kg i.v., frame 17-22 min after injection): 3.7 and 3.8 and 2.7 and 5.7 and 10.6 and 4.9 and 3.9 and 9.2 and 2.5 and 6.0
- ACE-PET Visual ([2]; primary tumor, individual patient, visual grading of uptake vs contra-lateral or surrounding tissue): + (2×) and +++ (4×) and ++ (4×)
- ACE-PET SUV, Mean ± SD ([2]; primary tumors, ten patients): 5.3±2.7
- range of ACE SUV ([2]; primary tumors, ten patients): 2.5-10.6

Compound: OC[C@H]1OC(O)[C@H]([18F])[C@@H](O)[C@@H]1O (stereo partly drawn) [FDG, ^18F-fluoro-2-deoxy-D-glucose]
- FDG-PET SUV, Mean ± SD [3]: 9.6±7.0
- range of FDG SUV [3]: 1.9-24.5
- FDG SUV (mean±SD) [4]: 4.47±3.3
- range of FDG SUV [4]: 0.9-10.0
